One assay concerns the target T1, hp70S6K1 (RPS6KB1) (Homo sapiens, UniProt P23443).
T1 construct: purchased Cerep (LANCE kinase assay platform, contract assay)
In words: Cerep LANCE kinase assay hp70S6K1 (S1 assay 31). It counts as biochemical. The conditions noted are these: for IC50: read-out: p70S6K1. A general note: In TR-FRET formats the signal depends on donor and acceptor labels being close together.

Assay [1] deals with nuclear β-catenin in C2C12 cells. In words: cells. It is filed as cell-based.
In a further assay the target is T2, hKDR (Homo sapiens, UniProt P35968).
T2 construct: purchased Cerep (LANCE kinase assay platform, contract assay)
T2 sequence (P35968 20-1356): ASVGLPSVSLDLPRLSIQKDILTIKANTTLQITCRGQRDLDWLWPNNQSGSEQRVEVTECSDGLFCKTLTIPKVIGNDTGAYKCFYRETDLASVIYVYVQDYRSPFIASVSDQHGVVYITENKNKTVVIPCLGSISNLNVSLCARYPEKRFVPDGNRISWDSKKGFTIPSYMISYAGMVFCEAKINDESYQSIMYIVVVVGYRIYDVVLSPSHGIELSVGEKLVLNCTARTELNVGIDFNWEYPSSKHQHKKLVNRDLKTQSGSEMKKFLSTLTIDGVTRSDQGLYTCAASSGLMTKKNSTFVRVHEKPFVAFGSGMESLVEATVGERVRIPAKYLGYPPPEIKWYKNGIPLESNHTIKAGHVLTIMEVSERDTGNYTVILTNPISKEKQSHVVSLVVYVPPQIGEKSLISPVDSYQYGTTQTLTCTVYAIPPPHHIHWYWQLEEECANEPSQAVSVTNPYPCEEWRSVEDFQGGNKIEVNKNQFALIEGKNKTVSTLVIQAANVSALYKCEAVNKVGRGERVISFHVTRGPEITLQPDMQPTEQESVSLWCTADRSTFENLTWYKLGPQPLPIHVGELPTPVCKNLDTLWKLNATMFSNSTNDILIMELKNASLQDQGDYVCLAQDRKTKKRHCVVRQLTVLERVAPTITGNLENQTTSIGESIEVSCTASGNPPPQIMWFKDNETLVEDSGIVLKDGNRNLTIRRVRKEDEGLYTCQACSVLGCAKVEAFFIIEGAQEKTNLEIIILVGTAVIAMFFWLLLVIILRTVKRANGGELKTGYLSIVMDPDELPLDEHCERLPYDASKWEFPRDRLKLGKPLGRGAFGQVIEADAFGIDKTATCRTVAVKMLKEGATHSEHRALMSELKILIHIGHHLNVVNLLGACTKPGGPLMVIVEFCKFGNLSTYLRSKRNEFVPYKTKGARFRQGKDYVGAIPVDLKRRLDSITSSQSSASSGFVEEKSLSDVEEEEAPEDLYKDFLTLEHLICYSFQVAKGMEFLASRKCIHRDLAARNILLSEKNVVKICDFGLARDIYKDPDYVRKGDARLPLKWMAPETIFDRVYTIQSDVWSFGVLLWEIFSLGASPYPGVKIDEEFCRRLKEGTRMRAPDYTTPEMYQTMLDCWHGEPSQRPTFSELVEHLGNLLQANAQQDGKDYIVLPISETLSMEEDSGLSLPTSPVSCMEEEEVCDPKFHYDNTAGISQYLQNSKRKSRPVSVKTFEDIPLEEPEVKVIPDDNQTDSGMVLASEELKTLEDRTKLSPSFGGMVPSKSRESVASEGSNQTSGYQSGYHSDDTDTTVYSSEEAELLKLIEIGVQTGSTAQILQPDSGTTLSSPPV
The assay can be described thus: Cerep LANCE kinase assay hKDR (S1 assay 32). The conditions noted are these: for IC50: read-out: KDR. It counts as biochemical.

In the next assay the test system is SW480. In words: cells. It is filed as cell-based. The conditions noted are these: Homo sapiens.
The test system of assay [2] is endothelial tube formation in co-cultures of ECFCs and ADSCs treated with VEGF. In words: cells. It counts as cell-based, human.
In another assay the test system is NCI-H716 cells. The assay can be described thus: cells. It counts as cell-based, Human.
The target of a further assay is T3, hFLT3 (Homo sapiens, UniProt P36888).
T3 construct: purchased Cerep (LANCE kinase assay platform, contract assay)
T3 sequence (P36888 27-993): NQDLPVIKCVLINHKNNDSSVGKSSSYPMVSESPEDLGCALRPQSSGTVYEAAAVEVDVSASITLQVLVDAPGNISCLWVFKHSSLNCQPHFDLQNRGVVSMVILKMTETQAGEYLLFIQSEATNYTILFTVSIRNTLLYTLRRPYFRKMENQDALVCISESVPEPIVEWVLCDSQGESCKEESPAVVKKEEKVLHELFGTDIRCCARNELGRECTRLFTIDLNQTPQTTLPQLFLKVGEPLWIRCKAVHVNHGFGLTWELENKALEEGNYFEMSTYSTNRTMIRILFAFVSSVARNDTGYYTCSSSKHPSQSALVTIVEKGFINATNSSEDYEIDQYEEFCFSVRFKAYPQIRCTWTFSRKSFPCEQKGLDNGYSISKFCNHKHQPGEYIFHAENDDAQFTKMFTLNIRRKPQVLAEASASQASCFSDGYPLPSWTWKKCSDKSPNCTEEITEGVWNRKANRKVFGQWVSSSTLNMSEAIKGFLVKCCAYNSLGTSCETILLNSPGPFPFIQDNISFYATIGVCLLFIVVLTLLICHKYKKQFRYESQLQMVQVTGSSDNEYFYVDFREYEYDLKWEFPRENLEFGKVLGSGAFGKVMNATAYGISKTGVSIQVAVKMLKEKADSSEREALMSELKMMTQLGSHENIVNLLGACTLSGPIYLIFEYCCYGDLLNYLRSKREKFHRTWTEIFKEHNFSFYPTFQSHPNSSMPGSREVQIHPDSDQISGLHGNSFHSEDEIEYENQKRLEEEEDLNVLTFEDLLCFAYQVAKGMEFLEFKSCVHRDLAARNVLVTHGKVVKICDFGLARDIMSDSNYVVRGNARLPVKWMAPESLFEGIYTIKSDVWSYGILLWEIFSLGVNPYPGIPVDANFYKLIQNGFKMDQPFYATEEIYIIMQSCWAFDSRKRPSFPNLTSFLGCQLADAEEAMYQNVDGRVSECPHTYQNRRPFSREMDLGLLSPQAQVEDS
The assay can be described thus: Cerep LANCE kinase assay hFLT3 (S1 assay 35). It is filed as biochemical. The conditions noted are these: for IC50: read-out: FLT3.

In a further assay the target is T4, hJAK2 (Homo sapiens, UniProt O60674).
T4 construct: purchased Cerep (LANCE kinase assay platform, contract assay)
T4 sequence (O60674 whole entry): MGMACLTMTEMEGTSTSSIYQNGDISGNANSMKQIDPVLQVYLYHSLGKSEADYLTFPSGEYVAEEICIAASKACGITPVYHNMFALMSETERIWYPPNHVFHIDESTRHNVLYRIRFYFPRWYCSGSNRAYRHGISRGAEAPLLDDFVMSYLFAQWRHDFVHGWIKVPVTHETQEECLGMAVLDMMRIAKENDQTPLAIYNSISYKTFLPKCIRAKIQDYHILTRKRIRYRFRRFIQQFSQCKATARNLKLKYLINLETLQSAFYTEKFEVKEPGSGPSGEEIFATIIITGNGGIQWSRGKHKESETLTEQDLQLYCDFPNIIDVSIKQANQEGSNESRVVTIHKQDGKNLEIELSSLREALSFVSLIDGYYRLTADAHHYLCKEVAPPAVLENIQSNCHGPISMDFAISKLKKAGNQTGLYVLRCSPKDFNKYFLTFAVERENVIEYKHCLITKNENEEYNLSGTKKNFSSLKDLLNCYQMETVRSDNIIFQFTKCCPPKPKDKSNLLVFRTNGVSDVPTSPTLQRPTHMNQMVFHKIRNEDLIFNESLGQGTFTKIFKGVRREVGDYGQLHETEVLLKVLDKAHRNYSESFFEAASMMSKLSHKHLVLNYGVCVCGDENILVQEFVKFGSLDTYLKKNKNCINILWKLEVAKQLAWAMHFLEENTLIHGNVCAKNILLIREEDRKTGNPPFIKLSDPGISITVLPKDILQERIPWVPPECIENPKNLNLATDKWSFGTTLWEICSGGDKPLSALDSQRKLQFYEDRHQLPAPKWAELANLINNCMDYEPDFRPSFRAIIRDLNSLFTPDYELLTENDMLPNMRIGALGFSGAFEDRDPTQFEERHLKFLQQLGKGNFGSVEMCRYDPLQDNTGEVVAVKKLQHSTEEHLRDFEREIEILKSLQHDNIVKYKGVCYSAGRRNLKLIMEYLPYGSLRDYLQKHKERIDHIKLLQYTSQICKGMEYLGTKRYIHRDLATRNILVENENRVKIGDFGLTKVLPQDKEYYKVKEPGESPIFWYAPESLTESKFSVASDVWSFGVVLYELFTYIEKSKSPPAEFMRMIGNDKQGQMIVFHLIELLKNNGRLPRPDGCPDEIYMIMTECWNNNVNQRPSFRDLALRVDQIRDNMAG
The assay can be described thus: Cerep LANCE kinase assay hJAK2 (S1 assay 33). The conditions noted are these: for IC50: read-out: JAK2. It is filed as biochemical.

The test system of the next assay is HeLa cells. In words: cells. The conditions noted are these: Homo sapiens, HeLa, HeLa, read-out: CellCycle G2/M. It is filed as cell-based.
For the next assay, the target named is T5, hGSK3b (Homo sapiens, UniProt P49841).
T5 construct: purchased Cerep (LANCE kinase assay platform, contract assay)
T5 sequence (P49841 whole entry): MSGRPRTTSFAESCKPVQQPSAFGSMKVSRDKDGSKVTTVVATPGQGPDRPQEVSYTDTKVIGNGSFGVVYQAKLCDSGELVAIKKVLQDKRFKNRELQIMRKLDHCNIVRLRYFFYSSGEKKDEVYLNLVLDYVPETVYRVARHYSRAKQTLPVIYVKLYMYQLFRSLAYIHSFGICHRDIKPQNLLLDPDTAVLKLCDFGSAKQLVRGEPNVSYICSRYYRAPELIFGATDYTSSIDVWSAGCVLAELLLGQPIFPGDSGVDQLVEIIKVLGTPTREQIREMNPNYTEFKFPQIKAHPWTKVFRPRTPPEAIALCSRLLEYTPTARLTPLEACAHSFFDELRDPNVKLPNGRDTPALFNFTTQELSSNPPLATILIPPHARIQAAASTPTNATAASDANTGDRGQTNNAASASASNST
In words: Cerep LANCE kinase assay hGSK3b (S1 assay 34). It is filed as biochemical. The following applies: for IC50: read-out: GSK3b.

Another assay concerns DLD-1. In words: cells. It is filed as cell-based. The following applies: Homo sapiens.
In another assay the test system is INS-1E cells. The assay can be described thus: cells. It is filed as cell-based, rat.
In assay [3] the test system is HCT116 cells treated with a GSK3β inhibitor. The assay can be described thus: cells. The following applies: Homo sapiens. It counts as cell-based.
A further assay relates to HCT116. In words: cells. It counts as cell-based. The following applies: Homo sapiens.
Setting [4] is: HCT-116, read-out: GSK3b inh pretreated_Viability ATP HCT116.
[5] abbreviates: Mus musculus, C2C12, read-out: Wnt Pathway.
Setting [6] is: SW480, read-out: Basal_Viability ATP SW480.
[7] abbreviates: Homo sapiens, read-out: Anti-Angiogenesis.
Setting [8] is: Homo sapiens, NCI-H716, read-out: GLP 1 Secretion.
Where [9] appears, read: DLD-1, read-out: Basal_Viability ATP DLD-1.
Setting [10] is: Rattus norvegicus, INS-1E, read-out: Insulin Secretion.
Where [11] appears, read: HCT-116, read-out: Basal_Viability ATP HCT116.
Where [12] appears, read: Mus musculus, C2C12, read-out: Wnt pot. EC50.
Setting [13] is: SW480, 72 h, read-out: SW480 viab. IC50.
Where [14] appears, read: Homo sapiens, read-out: Anti-Angio IC50.
[15] abbreviates: Homo sapiens, NCI-H716, read-out: GLP1 sec. EC50.
[16] abbreviates: DLD-1, 72 h, read-out: DLD-1 viab. IC50.
Setting [17] is: Rattus norvegicus, INS-1E, read-out: Ins. sec. EC50.
Where [18] appears, read: HCT-116, 72 h, read-out: HCT-116 (GSK3β) viab. IC50.
Where [19] appears, read: HCT-116, 72 h, read-out: HCT-116 viab. IC50.

Like-named read-outs stand apart in the source and are kept apart here.

T1 sequence (P23443 whole entry): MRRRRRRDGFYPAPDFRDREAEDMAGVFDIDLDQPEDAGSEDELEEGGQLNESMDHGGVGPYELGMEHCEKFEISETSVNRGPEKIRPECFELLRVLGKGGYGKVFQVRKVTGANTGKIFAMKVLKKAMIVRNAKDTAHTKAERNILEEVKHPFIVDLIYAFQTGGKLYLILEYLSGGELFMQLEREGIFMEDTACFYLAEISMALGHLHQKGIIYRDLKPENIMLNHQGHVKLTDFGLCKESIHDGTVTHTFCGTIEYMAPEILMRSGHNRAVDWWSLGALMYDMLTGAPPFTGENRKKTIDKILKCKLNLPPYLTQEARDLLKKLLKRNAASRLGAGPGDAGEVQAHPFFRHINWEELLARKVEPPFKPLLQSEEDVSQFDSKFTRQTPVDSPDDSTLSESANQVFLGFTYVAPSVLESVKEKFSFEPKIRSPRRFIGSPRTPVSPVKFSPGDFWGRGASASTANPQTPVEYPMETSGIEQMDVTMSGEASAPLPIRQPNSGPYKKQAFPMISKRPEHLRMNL

As to `CCCCC1C(=O)N(c2ccccc2)N(c2ccc(O)cc2)C1=O` (stereo not shown) [Oxyphenbutazone], the IC50 at hp70S6K1 (RPS6KB1) was more than 20 µM; at hKDR, more than 20 µM; in the assay with SW480 (SW480, basal, read-out: Basal_Viability ATP SW480), 3.01 µM; in [2] (Homo sapiens, IC50 / EC50; endothelial tube area, ADSC/ECFC co-culture; read-out: Anti-Angiogenesis), 3.29 µM; at hFLT3, more than 20 µM; at hJAK2 it was more than 20 µM. Moreover, the IC50 is more than 20 µM on hGSK3b; 5.87 µM with DLD-1 (DLD-1, basal, read-out: Basal_Viability ATP DLD-1); more than 20 µM in [3] (setting [4]); 15.7 µM in the assay on HCT116 (HCT-116, basal, read-out: Basal_Viability ATP HCT116). The EC50 is 4.92 µM in assay [1] (Mus musculus, C2C12, IC50 / EC50; C2C12 beta-catenin translocation; read-out: Wnt Pathway); more than 10 µM with NCI-H716 cells (Homo sapiens; IC50 / EC50; NCI-H716; read-out: GLP 1 Secretion); more than 10 µM in the assay with HeLa cells (IC50 / EC50); more than 10 µM in the assay on INS-1E cells (Rattus norvegicus; IC50 / EC50; INS-1E; read-out: Insulin Secretion).

Take `COc1cc([C@@H]2c3cc4c(cc3[C@H](O)[C@H]3COC(=O)[C@H]23)OCO4)cc(OC)c1OC` [Podofilox]: the IC50 at hp70S6K1 (RPS6KB1) (kinase assay) was more than 20 µM; at hKDR (kinase assay) it was more than 20 µM; with SW480 (basal, SW480, read-out: Basal_Viability ATP SW480), 0.207 µM; in assay [2] (Homo sapiens; read-out: Anti-Angiogenesis), 0.0081 µM; on hFLT3 (kinase assay) it was more than 20 µM; at hJAK2 (kinase assay), more than 20 µM. Further, the IC50 at hGSK3b (kinase assay) is more than 20 µM; with DLD-1 (basal, DLD-1, read-out: Basal_Viability ATP DLD-1), 0.182 µM; in [3] (HCT-116, HCT116 pretreated with GSK3b inhibitor, read-out: GSK3b inh pretreated_Viability ATP HCT116) it was 0.0667 µM; in the assay on HCT116 (HCT-116, basal, HCT116, read-out: Basal_Viability ATP HCT116), 0.184 µM. Besides, the EC50 is 0.0091 µM in assay [1] (Mus musculus, C2C12; read-out: Wnt Pathway); more than 10 µM in the assay on NCI-H716 cells (Homo sapiens, NCI-H716; read-out: GLP 1 Secretion); 0.0077 µM in the assay on HeLa cells (S2 Table, 20 = no response at highest concentration); more than 10 µM in the assay on INS-1E cells (Rattus norvegicus, INS-1E; read-out: Insulin Secretion).

On to `COc1cc(-c2ccc(=O)[nH]n2)ccc1OC(F)F` [Zardaverine], for which the IC50 on hp70S6K1 (RPS6KB1) (kinase assay) was more than 20 µM; on hKDR (kinase assay) it was more than 20 µM; in the assay on SW480 (setting [6]), more than 20 µM; in assay [2] (setting [7]), 1.22 µM; at hFLT3 (kinase assay), more than 20 µM; on hJAK2 (kinase assay) it was more than 20 µM. Also, the IC50 (at hGSK3b (kinase assay); in the assay with DLD-1 (setting [9]); in [3] (setting [4]); in the assay on HCT116 (setting [11])) was more than 20 µM throughout. The EC50 (in assay [1] (setting [5]); in the assay with NCI-H716 cells (setting [8]); with HeLa cells; in the assay on INS-1E cells (setting [10])) was more than 10 µM in each case.

Turning to `CCCCCCCCCCCCCCCCNc1ccc(C(=O)O)cc1` [cetaben sodium, sodium p-(hexadecylamino) benzoate, reference compound], the “inhibition of RPS6KB1 activity (in words)” value at hp70S6K1 (RPS6KB1) is recorded as “does not inhibit”. Moreover, the IC50 on hp70S6K1 (RPS6KB1) was more than 20 µM; on hKDR, more than 20 µM; in the assay with SW480 (setting [13]) it was 4.4 µM; in the assay on SW480 (setting [6]) it was 4.39 µM; in assay [2] (setting [14]), 0.37 µM; in assay [2] (setting [7]), 0.367 µM. Further, the IC50 on hFLT3 is more than 20 µM; on hJAK2 it was more than 20 µM; at hGSK3b it was more than 20 µM; with DLD-1 (setting [16]) it was 10.6 µM; in the assay on DLD-1 (setting [9]), 10.6 µM; in [3] (setting [18]) it was 7.4 µM. Moreover, the IC50 is 7.41 µM in [3] (setting [4]) and more than 20 µM in the assay on HCT116 (setting [19]). The EC50 (in assay [1] (setting [12]); in the assay with NCI-H716 cells (setting [15]); in the assay with HeLa cells; in the assay on INS-1E cells (setting [17])) was more than 10 µM throughout. Moreover, the “inhibition of KDR activity (in words)” value on hKDR was “does not inhibit”. In addition, the “inhibition of endothelial tube / cord formation (in words)” value in assay [2] was “uniquely inhibited endothelial cord formation”. Further, on hFLT3, the “inhibition of FLT3 activity (in words)” value is reported as “does not inhibit”. The “inhibition of JAK2 activity (in words)” value on hJAK2 is given as “does not inhibit”. In addition, on hGSK3b, the “inhibition of GSK3β activity (in words)” value is reported as “does not inhibit”.

As to `CCC(C)n1ncn(-c2ccc(N3CCN(c4ccc(OCC5COC(Cn6cncn6)(c6ccc(Cl)cc6Cl)O5)cc4)CC3)cc2)c1=O` (stereo not shown) [itraconazole], the IC50 was more than 20 µM on hp70S6K1 (RPS6KB1); more than 20 µM at hKDR; 4.33 µM in the assay on SW480 (setting [6]); 1.55 µM in [2] (setting [7]); more than 20 µM at hFLT3; more than 20 µM at hJAK2. For the same compound, the IC50 at hGSK3b was more than 20 µM; in the assay with DLD-1 (setting [9]) it was more than 20 µM; in [3] (setting [4]), 8.69 µM; in the assay on HCT116 (setting [11]), 8.85 µM. In addition, the EC50 (in assay [1] (setting [5]); in the assay on NCI-H716 cells (setting [8]); in the assay with HeLa cells; in the assay on INS-1E cells (setting [10])) was more than 10 µM in each case.

As for `CSc1ccc2c(c1)C(N1CCN(C)CC1)Cc1ccccc1S2` (stereo not shown) [metitepine, reference compound], the IC50 on hp70S6K1 (RPS6KB1) was more than 20 µM; on hKDR, more than 20 µM; with SW480 (setting [13]) it was 1.9 µM; in the assay on SW480 (setting [6]), 1.9 µM; in assay [2] (setting [14]), more than 10 µM; on hFLT3, more than 20 µM. Moreover, the IC50 on hJAK2 was more than 20 µM; at hGSK3b, more than 20 µM; in the assay on DLD-1 (setting [16]) it was 4.4 µM; with DLD-1 (setting [9]), 4.39 µM; in assay [3] (setting [18]), 4.6 µM; in assay [3] (setting [4]), 4.57 µM. The IC50 amounted to 3.8 µM in the assay with HCT116 (setting [19]) and 3.77 µM in the assay with HCT116 (setting [11]). Besides, the EC50 in assay [1] (setting [12]) was more than 20 µM; in the assay on NCI-H716 cells (setting [15]), more than 10 µM; in the assay on HeLa cells, more than 10 µM; in the assay on INS-1E cells (setting [17]) it was 2.9 µM; in the assay on INS-1E cells (setting [10]), 2.94 µM.

With `CC[C@@H]([C@H](C)O)n1ncn(-c2ccc(N3CCN(c4ccc(OC[C@@H]5CO[C@@](Cn6cncn6)(c6ccc(F)cc6F)C5)cc4)CC3)cc2)c1=O` [posaconazole], the IC50 on hp70S6K1 (RPS6KB1) is more than 20 µM; on hKDR, more than 20 µM; with SW480 (setting [6]), 5.81 µM; in assay [2] (setting [7]) it was 6.46 µM; at hFLT3, more than 20 µM; at hJAK2, more than 20 µM. The IC50 at hGSK3b is more than 20 µM; with DLD-1 (setting [9]) it was more than 20 µM; in [3] (setting [4]) it was more than 20 µM; with HCT116 (setting [11]), 6.24 µM. Besides, the EC50 in assay [1] (setting [5]) is 1.63 µM; in the assay on NCI-H716 cells (setting [8]), more than 10 µM; with HeLa cells, more than 10 µM; in the assay with INS-1E cells (setting [10]), more than 10 µM.

For the compound `CCc1nc(N)nc(N)c1-c1ccc(Cl)cc1` [pyrimethamine, reference compound], the IC50 at hp70S6K1 (RPS6KB1) (kinase assay) was more than 20 µM; on hKDR (kinase assay) it was more than 20 µM; in the assay with SW480 (setting [13]), 12.5 µM; with SW480 (setting [6]) it was 12.5 µM; in [2] (setting [14]), more than 10 µM; at hFLT3 (kinase assay) it was more than 20 µM. Also, the IC50 at hJAK2 (kinase assay) is more than 20 µM; on hGSK3b (kinase assay), more than 20 µM; in the assay on DLD-1 (setting [16]), more than 20 µM; in assay [3] (setting [18]), more than 20 µM; in the assay with HCT116 (setting [19]) it was 18.2 µM; in the assay with HCT116 (setting [11]), 18.2 µM. The EC50 was 0.0677 µM in assay [1] (setting [5]); 0.068 µM in [1] (setting [12]); more than 10 µM in the assay with NCI-H716 cells (setting [15]); more than 10 µM in the assay with HeLa cells; more than 10 µM with INS-1E cells (setting [17]).

The values above are taken from article PMC4503722, “Novel Phenotypic Outcomes Identified for a Public Collection of Approved Drugs from a Publicly Accessible Panel of Assays” (PLoS ONE, 2015).
